Source: US20210405025A1, “IDENTIFYING COMPOUNDS FOR TREATING CANCER AND USE THEREOF” (THE UAB RESEARCH FOUNDATION, priority 2018, published 2021)
Counter-ions that a name gives are not always drawn. Like-named read-outs stand apart in the source and are kept apart here.

System: relapsed AML cells
Assay: Drug sensitivity assay, 1,536-well, 3-day culture with individual approved drugs at 10 μM, viability by alamarBlue
Format: cell-based, human
Description: Drug sensitivity assays were performed using a 1,536-well platform where all cells and reagents were deposited in wells using an acoustic liquid handling unit that is highly accurate for dispensing of nanoliter volumes of liquid. […] After dispensing the cells into the wells, an independent drug at a known concentration is added to each well and incubated with the cells. After three days, the percentage of live cells in each well is determined to assess the killing efficiency of each compound. […] Cell viability assays are known to those of skill in the art. See, for example, Pemovska et al., Individualized systems medicine strategy to tailor treatments for patients with chemorefractory acute myeloid leukemia. Cancer Discovery 3:1416-1429, 2013; Pabst et al., Identification of small molecules that support human leukemia stem cell activity ex vivo. Nature Methods 11:436-442, 2014; Baccelli et al., A novel approach for the identification of efficient combination therapies in primary human acute myeloid leukemia specimens. Blood Cancer Journal 7:e529, 2017. In studies described herein, the 1,536-well format was utilized, which allowed for use of four times fewer cells as well as less drug and media components due to the small assay volume of 5 microliters. […] Other compounds like CellTiter-Glo (Promega, Madison, Wis.) are equally appropriate reagents for determining cell viability.
Conditions for the drug screening assays were as described in Pabst et al., Identification of small molecules that support human leukemia stem cell activity ex vivo, Nature Methods 11:436-442, 2014). Using this protocol, cells were cultured in Iscove's Modified Dulbecco's Medium (IMDM), 15% BIT (bovine serum albumin, insulin, transferrin; Stem Cell Technologies 09500 (Vancouver, Calif.)), 100 ng/ml SCF (Shenandoah 100-04 (Warwick, Pa.)), 50 ng/ml FLT3L (Shenandoah 100-21), 20 ng/ml IL-3 (Shenandoah 100-80), 20 ng/ml G-CSF (Shenandoah 100-72), 10^-4 M β-mercaptoethanol, gentamicin (50 μg/ml) and ciprofloxacin (10 μg/ml).
Cells were removed from liquid nitrogen and placed in a 37° C. bath, just until thawed. For 1,536-well screens utilizing 6,000 wells about 100 million cells were thawed. The volume was doubled with pre-warmed culture media and placed on ice for about one to two minutes. The cells were brought to a final volume of about 8 to 10 mL before spinning down at 1,100 rpm for 5 min at 10° C. The pelleted cells were resuspended in 10 mL of culture media and plated in a tissue-culture treated T75 flask at a density of 1 to 2 million cells/ml. The cells were cultured overnight prior to fluorescence-activated cell sorting of viable cells on the following day.
After cells were cultured overnight, a cell scraper was used to remove any cells that adhered to the plastic. The cells were gently pipetted up and down to break up aggregates. Then, the entire volume was transferred to a 50 mL conical tube through a 70 micron cell strainer to remove cell clumps. The T75 flask was rinsed and scraped with about 10 mL HBSS and transferred to the same 50 mL conical tube through the strainer. The harvested cells were spun down at 1,100 rpm for 5 min at 10° C. The cells were then resuspendd in about 300-500 microliters FACS buffer (HBSS+2% FBS+1× propidium iodide) and transferred to a FACS tube. The tube was placed on ice and viable cells that are forward- and side-scatter gated on viable myeloid blasts were sorted by FACS (the scatter gate should exclude small lymphocytes, large myeloid cells, and debris). After sorting the required number of viable cells, the cells were spun down at 1,100 rpm for 5 min at 10° C. and subsequently resuspended at 4,000-4,500 cells per 5 microliter volume of complete culture media with growth factors and penicillin/streptomycin.

[1] = number of relapsed AML cases out of 18 tested with >70% cell death, 10 μM, 3-day culture

Molecule | #Cases >70% cell death [1] | #Cases >70% cell death
C[C@H]1C[C@H]2[C@@H]3CCC4=CC(=O)C=C[C@]4(C)[C@@]3(F)[C@@H](O)C[C@]2(C)[C@@]1(O)C(=O)CO [BETAMETHASONE] | 1 | –
CCCCOc1ccc(CC(=O)NO)cc1 [BUFEXAMAC] | 9 | –
COc1cc(/C=C/C(=O)CC(=O)/C=C/c2ccc(O)c(OC)c2)ccc1O [CURCUMIN] | 1 | –
CC(=O)OC[C@H]1O[C@@H]([S-])[C@H](OC(C)=O)[C@@H](OC(C)=O)[C@@H]1OC(C)=O.CCP(CC)CC.[Au+] [AURANOFIN] | 17 | –
O=C1c2c(O)ccc(O)c2C(=O)c2c(NCCNCCO)ccc(NCCNCCO)c21 [MITOXANTRONE] | 18 | –
COc1ccc(-c2ccc3ncc4c(c3c2)n(-c2ccc(N3CCNCC3)c(C(F)(F)F)c2)c(=O)n4C)cn1 [NVP-BGT226] | 8 | –
CCN(CC)CCOCCOC(=O)C(CC)(CC)c1ccccc1.O=C(O)CC(O)(CC(=O)O)C(=O)O [OXELAIDIN CITRATE] | 2 | –
CC(C)Oc1ccc(C(=O)N[C@H](CNC(=O)CN(C)C)Cc2ccc(-c3cn4cccc([C@H](C)O)c4n3)cc2)cc1Cl [GSK923295] | 8 | –
CC[C@@]1(O)C(=O)OCc2c1cc1n(c2=O)Cc2cc3cc(O)ccc3nc2-1 [10-HYDROXYCAMPTOTHECIN] | 12 | –
O=c1[nH]c(=O)n([C@H]2C[C@H](O)[C@@H](CO)O2)cc1F [FLOXURIDINE] | 8 | –
CC(=O)N1CCN(c2ccc(OCC3COC(Cn4ccnc4)(c4ccc(Cl)cc4Cl)O3)cc2)CC1 (centres unmarked) [KETOCONAZOLE] | 5 | –
CC[C@@H](C(=O)[C@@H](C)[C@@H](O)[C@H](C)[C@@H]1O[C@@H]([C@@H](CC)C(=O)O)CC[C@@H]1C)[C@H]1O[C@]2(C=C[C@@H](O)[C@]3(CC[C@@](C)([C@H]4CC[C@](O)(CC)[C@H](C)O4)O3)O2)[C@H](C)C[C@@H]1C [SALINOMYCIN] | 10 | –
CNC[C@H](O)[C@@H](O)[C@H](O)[C@H](O)CO [MEGLUMINE] | 1 | –
CC[C@H](C)C(=O)O[C@H]1CCC=C2C=C[C@H](C)[C@H](CC[C@@H]3C[C@@H](O)CC(=O)O3)[C@H]21 [MEVASTATIN] | 7 | –
CC(=O)O[C@H]1C[C@H](O[C@H]2[C@@H](O)C[C@H](O[C@H]3[C@@H](O)C[C@H](O[C@H]4CC[C@@]5(C)[C@H](CC[C@@H]6[C@@H]5C[C@@H](O)[C@]5(C)[C@@H](C7=CC(=O)OC7)CC[C@]65O)C4)O[C@@H]3C)O[C@@H]2C)O[C@H](C)[C@H]1O[C@@H]1O[C@H](CO)[C@@H](O)[C@H](O)[C@H]1O [LANATOSIDE C] | 18 | –
CC(C)(C)C(=O)C(Oc1ccc(Cl)cc1)n1ccnc1 (centres unmarked) [CLIMBAZOLE] | 1 | –
COc1ccc(S(=O)(=O)Nc2cccnc2Nc2ccc(O)cc2)cc1 [ABT-751] | 5 | –
N[C@@H](Cc1ccc(N(CCCl)CCCl)cc1)C(=O)O | 4 | –
C[C@H](CCC(=O)O)[C@H]1CC[C@H]2[C@@H]3[C@@H](O)C[C@@H]4C[C@H](O)CC[C@]4(C)[C@H]3CC[C@]12C [URSODIOL] | 2 | –
CNC(=O)c1cc(Oc2ccc(NC(=O)Nc3ccc(Cl)c(C(F)(F)F)c3)cc2)ccn1 [SORAFENIB] | 9 | –
CCN(CC)CCOc1ccc2c(c1)C(=O)c1cc(OCCN(CC)CC)ccc1-2 [TILORONE] | 10 | –
Cn1c(C#N)ccc1-c1ccc2c(c1)C(C)(C)OC(=S)N2 [TANAPROGET] | 5 | –
CN(C)c1ccc(C(=C2C=CC(=[N+](C)C)C=C2)c2ccc(N(C)C)cc2)cc1 [GENTIAN VIOLET] | 18 | –
OC1(c2ccc(Cl)c(C(F)(F)F)c2)CCN(CCCC(c2ccc(F)cc2)c2ccc(F)cc2)CC1 [PENFLURIDOL] | 14 | –
CN(C)C(=O)n1cc(C(=O)c2ccn3c2CS[C@@H]3c2cccnc2)c2ccc(-c3ccc(F)cc3)cc21 [A-85783] | 9 | –

Molecule | #Cases >70% cell death [1] | #Cases >70% cell death
Cc1ccc(C(=O)N(CCCN)[C@@H](c2oc3cc(Cl)ccc3c(=O)c2Cc2ccccc2)C(C)C)cc1 [SB743921] | 18 | –
CC[C@]1(O)C[C@@H]2CN(CCc3c([nH]c4ccccc34)[C@@](C(=O)OC)(c3cc4c(cc3OC)N(C)[C@H]3[C@@](O)(C(N)=O)[C@H](O)[C@]5(CC)C=CCN6CC[C@]43[C@@H]65)C2)C1 | 9 | –
O=C(Nc1ccc([N+](=O)[O-])cc1Cl)c1cc(Cl)ccc1O [NICLOSAMIDE] | 1 | –
CN1C[C@H](C(=O)N[C@]2(C)O[C@@]3(O)[C@@H]4CCCN4C(=O)[C@H](Cc4ccccc4)N3C2=O)C[C@@H]2c3cccc4[nH]cc(c34)C[C@H]21 [DIHYDROERGOTAMINE MESYLATE] | 1 | –
CCCCCCCCCCCCCCCC[n+]1ccccc1 | – | 18
COC(=O)Nc1nc2ccc(C(=O)c3ccccc3)cc2[nH]1 [MEBENDAZOLE] | 5 | –
Cc1cc(Nc2nc(N[C@@H](C)c3ncc(F)cn3)ncc2Cl)[nH]n1 [AZD-1480] | 12 | –
O=C(O)c1ccccc1C(=O)Nc1ccc(S(=O)(=O)Nc2nccs2)cc1 [PHTHALYLSULFATHIAZOLE] | 1 | –
Cc1nnc(NS(=O)(=O)c2ccc(N)cc2)s1 [SULFAMETHIZOLE] | 18 | –
Clc1ccc(COC(Cn2ccnc2)c2ccc(Cl)cc2Cl)c(Cl)c1 (centres unmarked) [MICONAZOLE] | 1 | –
CCCC(=O)O[C@]1(C(=O)COC(C)=O)CC[C@H]2[C@@H]3C[C@H](F)C4=CC(=O)C=C[C@]4(C)[C@@]3(F)[C@@H](O)C[C@@]21C [DIFLUPREDNATE] | 1 | –
CCN(CC)CCN1C(=O)c2c(c3c4cccc(Cl)c4n([C@@H]4O[C@H](CO)[C@@H](OC)[C@H](O)[C@H]4O)c3c3[nH]c4c(Cl)cccc4c23)C1=O [BECATECARIN] | 18 | –
COCCn1c2c([n+](Cc3cnccn3)c1C)C(=O)c1ccccc1C2=O [YM-155] | 18 | –
Oc1c(I)cc(Cl)c2cccnc12 [CLIOQUINOL] | 6 | –
CN(C)C[C@@H]1CCn2cc(c3ccccc32)C2=C(C(=O)NC2=O)c2cn(c3ccccc23)CCO1 [LY333531] | 12 | –
ARSENIC TRIOXIDE DIETHANOLAMINE SALT | 16 | –
CC(C)OC(=O)CCC/C=C\C[C@@H]1[C@@H](CC[C@@H](O)CCc2ccccc2)[C@H](O)C[C@@H]1O [LATANOPROST] | 1 | –
CCN[C@H]1C[C@H](C)S(=O)(=O)c2sc(S(N)(=O)=O)cc21 [DORZOLAMIDE] | 4 | –
O=C(c1ccc(/C=C/c2n[nH]c3ccccc23)cc1)N1CCNCC1 [KW-2449] | 9 | –
COC(=O)Nc1nc2ccc(Sc3ccccc3)cc2[nH]1 [FENBENDAZOLE] | 5 | –
COc1cc2c(c(OC)c1OC)-c1ccc(OC)c(=O)cc1[C@@H](NC(C)=O)CC2 [COLCHICINE] | 13 | –
CN(C(=O)CN(CCO)CC(=O)N(C)C(C)(C)Cc1ccccc1)C(C)(C)Cc1ccccc1 [OXETHAZAINE] | 1 | –
OCCN(CCO)c1nc(N2CCCCC2)c2nc(N(CCO)CCO)nc(N3CCCCC3)c2n1 [DIPYRIDAMOLE] | 2 | –
CCCCNc1ccc(C(=O)OCCN(C)C)cc1 [TETRACAINE] | 12 | –
CC(=O)[C@H]1CC[C@H]2[C@@H]3C=CC4=CC(=O)CC[C@@]4(C)[C@@H]3CC[C@]12C [DYDROGESTERONE] | 1 | –
